Values of other authors as cited in patent publication US11111208B2, “Process for the preparation of safinamide mesylate intermediate” (RK Pharma Solutions LLC, priority 2019, dated 2021).
Where a name gives a salt, the structure may show the parent alone. Read-outs that look alike come from different tables or passages of the source.

Columns and labels:
[1] = not given; remark: listed apart in the source

solubility (in dimethyl sulfoxide)	solubility (in ethanol)	solubility (in ethyl acetate)	solubility (in methanol)	solubility (in water)	solubility ([1]; aqueous buffer pH 1.2)	solubility ([1]; aqueous buffer pH 4.5)	solubility ([1]; aqueous buffer pH 6.8) [µg/mL]	solubility ([1]; aqueous buffer pH 7.5) [µg/mL]	Compound	neuroprotective and neurorescuing effects (MPTP-treated mice)	neuroprotective and neurorescuing effects (rat kainic acid model)	neuroprotective and neurorescuing effects (gerbil ischemia model)
freely soluble	sparingly soluble	practically insoluble	freely soluble	freely soluble	highly soluble	highly soluble	< 400	< 400	C[C@H](NCc1ccc(OCc2cccc(F)c2)cc1)C(N)=O [Safinamide mesylate, (S)-2-[[4-[(3-fluorophenyl)methoxy]phenyl]methyl]aminopropanamide methanesulfonate (1:1)]	–	–	–
–	–	–	–	–	–	–	–	–	C[C@H](NCc1ccc(OCc2cccc(F)c2)cc1)C(N)=O [Safinamide, (S)-2-[4-(3-fluorobenzyloxy)-benzylamino]propanamide]	neuroprotective and neurorescuing effects	neuroprotective and neurorescuing effects	neuroprotective and neurorescuing effects
